Results published in ChEMBL document CHEMBL1201862, “PubChem BioAssay data set” (2004).
Calls of active or inactive are those of the source.

How the values were obtained:
[1] = molecular target: T1, Sentrin-specific protease 7 (Homo sapiens, UniProt Q9BQF6); assay type: functional;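 note: Luminescence-based dose-response confirmation of ultra-high-throughput screening hits, measuring inhibition of SENP7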
T1 sequence (Q9BQF6 whole entry): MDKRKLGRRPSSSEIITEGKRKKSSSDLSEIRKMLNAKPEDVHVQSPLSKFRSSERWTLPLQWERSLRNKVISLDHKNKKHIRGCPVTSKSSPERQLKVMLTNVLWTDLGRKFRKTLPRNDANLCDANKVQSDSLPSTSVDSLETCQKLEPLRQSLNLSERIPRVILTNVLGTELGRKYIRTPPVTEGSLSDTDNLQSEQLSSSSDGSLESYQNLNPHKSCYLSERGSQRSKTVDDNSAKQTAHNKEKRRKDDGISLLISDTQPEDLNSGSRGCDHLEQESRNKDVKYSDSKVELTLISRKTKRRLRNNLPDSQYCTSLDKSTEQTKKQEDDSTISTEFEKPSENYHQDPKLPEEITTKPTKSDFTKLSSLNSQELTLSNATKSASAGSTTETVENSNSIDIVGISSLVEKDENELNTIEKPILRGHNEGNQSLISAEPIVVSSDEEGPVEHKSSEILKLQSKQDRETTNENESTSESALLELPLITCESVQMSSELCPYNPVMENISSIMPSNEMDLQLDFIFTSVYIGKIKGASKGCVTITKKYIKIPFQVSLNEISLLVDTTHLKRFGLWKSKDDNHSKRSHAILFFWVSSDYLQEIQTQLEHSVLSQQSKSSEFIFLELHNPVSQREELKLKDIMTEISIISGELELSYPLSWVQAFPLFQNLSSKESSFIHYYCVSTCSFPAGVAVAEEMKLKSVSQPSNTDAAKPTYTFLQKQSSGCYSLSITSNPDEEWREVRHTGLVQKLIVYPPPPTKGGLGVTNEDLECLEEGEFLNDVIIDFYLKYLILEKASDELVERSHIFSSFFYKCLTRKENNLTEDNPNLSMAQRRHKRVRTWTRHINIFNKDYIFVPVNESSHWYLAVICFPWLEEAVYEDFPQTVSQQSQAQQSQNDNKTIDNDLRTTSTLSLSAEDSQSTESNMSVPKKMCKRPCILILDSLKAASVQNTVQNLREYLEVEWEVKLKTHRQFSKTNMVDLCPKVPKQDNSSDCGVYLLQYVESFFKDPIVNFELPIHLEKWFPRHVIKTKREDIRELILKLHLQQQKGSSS

Caspase-3 = molecular target: T2, Caspase-3 (Homo sapiens, UniProt P42574); assay type: functional;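 note: Dose-response selectivity test against caspase-3 for candidate inhibitors of sentrin-specific proteases (SENPs)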
T2 sequence (P42574 whole entry): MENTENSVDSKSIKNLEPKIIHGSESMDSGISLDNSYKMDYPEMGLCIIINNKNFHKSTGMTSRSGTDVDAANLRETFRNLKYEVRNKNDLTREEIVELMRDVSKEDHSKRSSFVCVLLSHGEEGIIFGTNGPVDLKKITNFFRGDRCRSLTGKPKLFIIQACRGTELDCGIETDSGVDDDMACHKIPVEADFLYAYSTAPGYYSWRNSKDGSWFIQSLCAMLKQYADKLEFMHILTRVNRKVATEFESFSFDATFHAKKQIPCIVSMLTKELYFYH

Protein skinhead-1 = molecular target: T3, Protein skinhead-1 (Caenorhabditis elegans, UniProt P34707); assay type: functional
T3 sequence (P34707 whole entry): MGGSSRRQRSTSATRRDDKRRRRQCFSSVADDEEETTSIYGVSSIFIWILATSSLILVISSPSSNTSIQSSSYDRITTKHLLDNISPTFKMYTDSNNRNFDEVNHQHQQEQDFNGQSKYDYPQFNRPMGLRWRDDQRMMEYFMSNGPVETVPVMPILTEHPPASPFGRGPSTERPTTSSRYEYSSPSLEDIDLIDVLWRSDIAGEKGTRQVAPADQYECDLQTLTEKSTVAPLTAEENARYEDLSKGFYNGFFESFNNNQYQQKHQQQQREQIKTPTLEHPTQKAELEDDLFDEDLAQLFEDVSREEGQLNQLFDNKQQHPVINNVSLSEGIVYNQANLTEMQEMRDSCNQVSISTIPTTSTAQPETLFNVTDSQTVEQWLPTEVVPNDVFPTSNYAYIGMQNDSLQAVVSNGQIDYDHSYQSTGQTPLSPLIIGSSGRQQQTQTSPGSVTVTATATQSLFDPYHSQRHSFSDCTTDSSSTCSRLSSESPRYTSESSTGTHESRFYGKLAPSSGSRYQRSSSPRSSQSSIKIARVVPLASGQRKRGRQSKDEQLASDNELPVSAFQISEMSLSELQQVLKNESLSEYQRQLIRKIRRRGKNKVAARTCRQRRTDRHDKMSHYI

[2] = molecular target: T4, Sentrin-specific protease 6 (Homo sapiens, UniProt Q9GZR1); assay type: functional;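 note: Luminescence-based dose-response confirmatory assay of SENP6 inhibition, following up an ultra-high-throughput screen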
T4 sequence (Q9GZR1 whole entry): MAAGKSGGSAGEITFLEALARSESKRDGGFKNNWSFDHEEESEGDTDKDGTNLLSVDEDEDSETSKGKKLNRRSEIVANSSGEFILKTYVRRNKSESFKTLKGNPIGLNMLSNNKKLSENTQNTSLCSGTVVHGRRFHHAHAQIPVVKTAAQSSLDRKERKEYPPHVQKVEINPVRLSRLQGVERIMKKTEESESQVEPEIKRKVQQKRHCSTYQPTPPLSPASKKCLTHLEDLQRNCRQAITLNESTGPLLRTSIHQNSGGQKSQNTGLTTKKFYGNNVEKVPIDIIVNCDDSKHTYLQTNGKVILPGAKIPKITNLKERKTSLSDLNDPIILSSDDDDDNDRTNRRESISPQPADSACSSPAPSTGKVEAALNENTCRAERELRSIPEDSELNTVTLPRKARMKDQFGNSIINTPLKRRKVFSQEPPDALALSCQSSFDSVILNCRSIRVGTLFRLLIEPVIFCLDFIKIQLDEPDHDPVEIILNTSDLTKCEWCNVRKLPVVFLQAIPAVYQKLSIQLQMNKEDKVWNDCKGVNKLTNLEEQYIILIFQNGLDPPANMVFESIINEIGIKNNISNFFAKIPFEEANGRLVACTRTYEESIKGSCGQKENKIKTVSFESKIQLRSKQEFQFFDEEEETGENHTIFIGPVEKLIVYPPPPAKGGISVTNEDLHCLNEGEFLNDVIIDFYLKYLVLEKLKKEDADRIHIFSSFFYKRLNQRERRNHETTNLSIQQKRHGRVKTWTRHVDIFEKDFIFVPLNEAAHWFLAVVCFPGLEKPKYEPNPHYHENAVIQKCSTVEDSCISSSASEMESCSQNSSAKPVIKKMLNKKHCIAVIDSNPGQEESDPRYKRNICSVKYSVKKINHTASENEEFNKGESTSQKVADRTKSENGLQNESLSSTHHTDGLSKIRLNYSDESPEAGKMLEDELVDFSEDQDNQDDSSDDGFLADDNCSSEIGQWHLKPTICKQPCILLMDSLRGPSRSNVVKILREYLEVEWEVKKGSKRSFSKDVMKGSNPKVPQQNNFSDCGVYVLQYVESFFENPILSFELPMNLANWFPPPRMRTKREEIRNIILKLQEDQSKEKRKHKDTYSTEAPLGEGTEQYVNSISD

[3] = molecular target: T5, Sentrin-specific protease 8 (Homo sapiens, UniProt Q96LD8); assay type: functional;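 note: luminescence read-out of SENP8 inhibition, dose-response confirmation following an ultra-high-throughput screen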
T5 sequence (Q96LD8 whole entry): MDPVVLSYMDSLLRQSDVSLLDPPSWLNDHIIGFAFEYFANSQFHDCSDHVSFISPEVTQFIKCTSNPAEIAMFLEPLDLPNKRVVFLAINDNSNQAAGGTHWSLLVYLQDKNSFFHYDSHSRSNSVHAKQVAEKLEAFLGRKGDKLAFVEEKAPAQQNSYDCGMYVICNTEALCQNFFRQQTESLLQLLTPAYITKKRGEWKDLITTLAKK

[4] = molecular target: T6, Endoribonuclease toxin MazF (Escherichia coli K-12, UniProt P0AE70); test: fluorescent RNA oligo signal without MazF, dose response, counter-screen for MazEF activator project, biochemical, fluorescence, single-stranded RNase substrate (AID 588502); assay type: functional
T6 sequence (P0AE70 whole entry): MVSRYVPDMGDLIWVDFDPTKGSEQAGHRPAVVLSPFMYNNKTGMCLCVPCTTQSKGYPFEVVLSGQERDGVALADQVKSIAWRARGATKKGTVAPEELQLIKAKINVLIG

[5] = molecular target: T6, Endoribonuclease toxin MazF; test: MazF toxin RNase activators, dose response, biochemical, fluorescence, single-stranded RNA substrate, uHTS hits (AID 588481); assay type: functional
[6] = inhibitors of firefly luciferase expression or activity, dose response, H4 neuroglioma cells, luminescence (AID 1990); assay type: functional, cell-based
[7] = molecular target: T7, Microphthalmia-associated transcription factor (Homo sapiens, UniProt O75030); test: TRPM1 promoter luciferase signal decrease, dose response, MITF inhibitor project, cell-based, SK-MEL-5, cherry-picked, set 3 (AID 493073); assay type: functional
T7 sequence (O75030 whole entry): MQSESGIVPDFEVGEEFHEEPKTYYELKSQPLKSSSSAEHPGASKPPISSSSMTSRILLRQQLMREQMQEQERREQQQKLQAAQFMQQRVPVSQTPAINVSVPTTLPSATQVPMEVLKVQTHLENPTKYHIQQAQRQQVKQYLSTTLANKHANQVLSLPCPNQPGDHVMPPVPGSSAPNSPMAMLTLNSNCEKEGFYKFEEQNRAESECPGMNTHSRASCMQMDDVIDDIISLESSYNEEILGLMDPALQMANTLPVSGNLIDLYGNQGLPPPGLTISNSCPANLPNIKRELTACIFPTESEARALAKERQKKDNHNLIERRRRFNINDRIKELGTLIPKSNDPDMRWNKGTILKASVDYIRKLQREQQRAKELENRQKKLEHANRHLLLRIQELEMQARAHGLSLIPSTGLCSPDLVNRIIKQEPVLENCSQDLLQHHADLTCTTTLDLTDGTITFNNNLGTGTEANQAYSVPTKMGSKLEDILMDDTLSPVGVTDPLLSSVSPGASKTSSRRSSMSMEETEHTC

[8] = inhibitors of SNCA 5'UTR-driven reporter translation, confirmation, H4 neuroglioma cells, luminescence (AID 1988); assay type: functional, cell-based
A-375 = test: A375 melanoma cell viability reduction, dose response, counter-screen for MITF modulator project, cherry-pick samples, set 2 (AID 540335); assay type: functional, cell-based; conditions: Homo sapiens
[9] = Luminescence Cell-Based Dose Response HTS to Identify Inhibitors of 5'UTR Stem-Loop Driven Prion Protein mRNA Translation in H4 Neuroglioblastoma Cells. [Related pubchem assays: 1827 (Project Summary), 1813 (Primary HTS)]; assay type: functional
INS1 = test: beta cell apoptosis inhibitors, cytokine rescue, dose response, luminescence, retest (AID 449756); assay type: functional, cell-based; conditions: Rattus norvegicus;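 note: cell death triggered by IL-1 beta plus TNF-alpha plus IFN-gamma mixture; protective hits raise ATP signal compared with cytokine alone wells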
Cytochrome P450 2C9 = Cytochrome P450 2C9 (Homo sapiens, UniProt P11712)
Sequence of Cytochrome P450 2C9 (P11712 whole entry): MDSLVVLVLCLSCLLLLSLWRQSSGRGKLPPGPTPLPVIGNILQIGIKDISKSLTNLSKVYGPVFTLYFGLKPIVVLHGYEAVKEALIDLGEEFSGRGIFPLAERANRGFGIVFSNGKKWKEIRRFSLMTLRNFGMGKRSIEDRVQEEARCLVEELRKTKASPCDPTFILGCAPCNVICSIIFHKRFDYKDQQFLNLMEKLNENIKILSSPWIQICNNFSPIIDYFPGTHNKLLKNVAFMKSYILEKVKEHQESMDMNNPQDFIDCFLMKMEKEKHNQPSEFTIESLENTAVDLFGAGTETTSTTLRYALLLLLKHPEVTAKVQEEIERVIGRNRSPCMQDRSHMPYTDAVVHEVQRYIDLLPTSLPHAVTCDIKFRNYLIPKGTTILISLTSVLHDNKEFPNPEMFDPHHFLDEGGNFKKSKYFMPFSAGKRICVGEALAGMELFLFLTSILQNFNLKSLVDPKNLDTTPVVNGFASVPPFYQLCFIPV

With FC(F)(F)c1ccnc(Oc2ccc(C3=NCCS3)cc2)c1 the IC50 [1] was 2.36 µM (active), the IC50 (Caspase-3) was 11.5 µM (active) and the IC50 (Protein skinhead-1) was 94.5 µM (inactive). The IC50 [2] was 4.94 µM (active) and the IC50 [3] was 5.09 µM (active).

For CC(C)(C)NC(=O)COc1ccc(-c2ccccc2)cc1, the IC50 [1] was 12.3 µM (active), the IC50 (Caspase-3) was 24.6 µM (active) and the IC50 [2] was 52.6 µM (active). For the same molecule, the IC50 [3] was 70.7 µM (active).

In the case of O=C(Nc1cc[n+](-c2nc3ccccc3nc2[N-]S(=O)(=O)c2ccccc2)cc1)c1cccs1, the EC50 [4] is reported as > 99 µM (inactive) and the EC50 [5] is reported as > 99 µM (inactive).

In the case of Cc1nnc2nc(SCC(=O)NCCC3=CCCCC3)n(-c3ccc(Br)cc3)c(N)c1-2, the EC50 [6] is reported as 9.9 µM (active), the AC50 [7] is reported as 2.46 µM (active) and the EC50 [8] is reported as 8.54 µM (active). For the same molecule, the AC50 (A-375) was 26.9 µM (active), the EC50 [9] was 15.4 µM (active) and the AC50 (INS1) was 5.09 µM (active).

For CCOC(=O)c1sc(-c2ccc(OC)cc2)cc1N, the IC50 [1] was 7.33 µM (active), the IC50 (Caspase-3) was 37.5 µM (active) and the IC50 [2] was 12.1 µM (active). The IC50 [3] was 10.7 µM (active).

With COc1cc(/C=N/NC(=O)c2cccnc2)ccc1OC(=O)c1ccc2c(c1)OCO2 the EC50 [4] was > 99 µM (inactive), the AC50 (Cytochrome P450 2C9) was 7.94 µM (inconclusive) and the EC50 [5] was > 99 µM (inactive).
